Assay results taken from patent US20240207403A1, “PERSONALIZED IMMUNOTHERAPY USING INTESTINAL METABOLITES” (Evolve Biosystems, Inc., priority 2021, published 2024).

Tests used:
[1] = tested on: Aryl hydrocarbon Receptor (AhR); settings: bifidobacteria-derived ILA; cited from earlier work
[2] = target: hydrocarboxylic acid receptor 3 (HCAR3) (Homo sapiens, UniProt P49019); settings: bifidobacteria-derived ILA; cited from earlier work
naïve CD4+ T-cells = assay: In vitro polarization of naïve CD4+ T-cells with fecal water, ILA or IFNβ, read out by targeted sc-mRNA-seq; assay type: cell-based, human; settings: for LGALS1 (Galectin-1) in Th0, Th2 and Th17 cells: ILA alone (1 mM) during polarization
Protocol: To evaluate the cellular states of polarized T-cells, the inventors applied a targeted multiomics approach quantifying 259 mRNA molecules with known functions in T-cells and 10 surface proteins detected by oligo-coupled antibodies (Abseq™, Rhapsody™, BD Biosciences) (Mair et al., 2020).
T-cell polarization experiments. PBMC derived CD3 CD4 CD45RA″ naïve T-cells (CD8/14/19/56 negative) into an enriched culture medium including RPMI 1640+10% FBS+NEAA+1% Pen-strep+55 μM β-mercaptoethanol. Cells are added at a concentration of 2×10^5 cells/ml and pre-washed and resuspended 2.5 ml T-Activator Dynabeads are added to obtain a bead:cell ratio of 1:2. One milliliter of bead/cell suspension was added to 24-well plate and the following polarizing supplements Th0: No cytokines, Th1: IL-12 (50 nanogram (ng)/ml), Anti-human IL-4 antibody (1 μg/ml) Th2: IL-4 (10 ng/ml), Anti-human IFN-γ antibody (1 μg/ml), Th17: IL-6 (50 ng/ml), IL-23 (20 ng/ml), IL-1B (10 ng/ml), TGF-β1 (5 ng/ml), Anti-hum IL-4 (1 μg/ml), Anti-human IFN-γ antibody (1 μg/ml), iTreg: TGF-β1 (5 ng/ml), IL-2 (10 ng/ml) IFN-β: IFN-β (10 ng/ml). Cells are incubated at 37 °C, 5% CO2 humidified incubator for 5 days and harvested.
Targeted transcriptome and protein by BD Rhapsody single cell RNA Sequencing. Polarized T cells in each condition were labeled using BD Single-Cell Multiplexing Kit and BD AbSeq Ab-Oligos reagents strictly following the manufacturers protocol (BD Biosciences). Briefly, cells from each experiment condition were labelled with each sample tag and pooled 18 AbSeqAb-Oligos. Each sample was then washed twice, counted and resuspended in cold BD SampleBuffer, then calculated the cell number in each sample, then pooled the required number of cells from each sample to get approximately 20,000 cells in 620 μl for each cartridge (around 9 samples for each cartridge). After priming the nanowell cartridges, the pooled sample was loaded onto BDRhapsody cartridges and incubated at room temperature. Cell Capture Beads were prepared and then loaded onto the cartridge. According to the manufacturers protocol, cartridges were washed, cells were lysed, and Cell Capture Beads were retrieved and washed prior to performing reverse transcription and treatment with Exonuclease I. cDNA Libraries were prepared using mRNA Targeted, Sample Tag, and BD AbSeq Library Preparation with the BD Rhapsody Targeted mRNA and AbSeq Amplification Kits and protocol. […] Quality and quantity of PCR products were determined by using an Agilent 2100 Bioanalyzer and Qubit Fluorometer using the Qubit dsDNA HS Kit (ThermoFisher). […] Quality of final libraries was assessed by using Agilent Bioanalyzer and quantified using a Qubit Fluorometer. […]

[3] = ILA alone (1 mM) instead of fecal water

hydrocarboxylic acid receptor 3 (HCAR3), sequence (P49019 whole entry): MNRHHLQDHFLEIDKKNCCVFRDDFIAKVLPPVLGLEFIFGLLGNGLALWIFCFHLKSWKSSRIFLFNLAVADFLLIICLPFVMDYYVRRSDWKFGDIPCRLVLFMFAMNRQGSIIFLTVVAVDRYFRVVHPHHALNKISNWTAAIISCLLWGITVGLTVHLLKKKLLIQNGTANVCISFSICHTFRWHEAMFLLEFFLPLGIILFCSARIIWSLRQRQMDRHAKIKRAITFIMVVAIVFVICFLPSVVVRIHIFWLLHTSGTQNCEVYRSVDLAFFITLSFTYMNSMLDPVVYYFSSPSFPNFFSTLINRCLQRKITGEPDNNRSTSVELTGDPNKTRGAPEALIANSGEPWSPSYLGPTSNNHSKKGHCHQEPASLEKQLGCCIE

## O=C(O)C(O)Cc1c[nH]c2ccccc12 (stereo not drawn) [ILA, Indole-3-lactic acid]
[1]
  binding to AhR: bind
[2]
  binding to HCAR3: bind
naïve CD4+ T-cells
  LGALS1 (Galectin-1) in Th0, Th2 and Th17 cells: strongly upregulated
naïve CD4+ T-cells; listed as indole-3-lactic acid
  LGALS1 (Galectin-1) in Th0, Th2 and Th17 cells: upregulated
naïve CD4+ T-cells; [3]
  CXCR3 mRNA in Th0, Th2 and Th17 cells: upregulated
  granzyme B mRNA in Th0, Th2 and Th17 cells: upregulated
